# Source: US20260234180A1, “AMINO ACID DERIVATIVE, PREPARATION METHOD THEREFOR, AND PHARMACEUTICAL COMPOSITION FOR TREATING HEPATITIS, COMPRISING SAME” (priority 2021, published 2026)
# Key:
# HBV virus = assay: HBV infection of HepG2-NTCP cells, Southern blot analysis; format: cell-based, hepatitis B virus (HBV); settings: 20 μM
# Experimental: Specifically, the HepG2-NTCP cell line was cultured on a 6-well plate, incubation was performed overnight, HBV inhibitors were treated at a concentration of 20 μM, and the positive control Myrcludex-B (MyrB) was treated at a concentration of 200 nM, followed by culture for 24 hours. After HBV infection into the cells to make HBV 3000 genome equivalent per ml/cell (Geq/cell), the cell culture medium was replaced (medium changing, MC) a day after the viral infection to remove the virus unattached to cell membranes. In order to measure an amount of virus that entered the cell, medium changing (MC) was performed once more 4 days after viral infection. 2 days after replacement, HBeAg ELISA analysis was performed using a supernatant, and Southern blot analysis was performed with cell pellets.
# First, the cell pellets were pipetted with 100 μl of HEPES lysis buffer (10 mM HEPES, 100 mM NaCl, 1 mM EDTA, 1% NP-40), placed on ice for 20 minutes, and then centrifuged with a centrifuge under the conditions at 4° C. and 13000 rpm. After transferring the supernatant only to the new microtube, 4.5 μl of nuclease buffer I (10 mM CaCl2), 12 mM MgCl2, DNase 10 units) was added to carry out a reaction at 37° C. for 2 hours, and 40 μl of 26% PEG solution was added, followed by a reaction on ice for 1 hour. After centrifuging with the centrifuge at 4° C. and 13000 rpm for 30 minutes, and the supernatant was removed cleanly. After releasing the pellets with 100 μl of nuclease buffer II (10 mM Tris, 8 mM CaCl2), 6 mM MgCl2), 287.5 μl of 0.5% SDS buffer (25 mM Tris, 10 mM EDTA, 0.5% SDS, 100 mM NaCl) was added, and 12.5 μl of 20 mg/ml proteinase K was added, followed by a reaction at 37° C. for 2 hours. 400 μl of phenol-chloroform-isoamyl alcohol was added, centrifugation was performed at room temperature at 13000 rpm after voltexing, the supernatant was transferred to a new tube, 40 μl of 3 M NaOAc was added, and 800 μl of 100% ethanol was added for inverting, followed by a reaction overnight at −20° C. After performing centrifugation at 4° C. and 13000 rpm for 30 minutes, 800 μl of 70% ethanol was added and mixed to the pellet obtained by removing the supernatant, centrifugation was performed at 4° C. and 13000 rpm for 10 minutes, and then the supernatant was discarded. The ethanol was dried for 5 minutes to leave only the HBV DNA pellets, and then the pellets were dissolved again in 15 μl of TE buffer (10 mM Tris, 1 mM EDTA). HBV DNA samples were loaded in 1% agarose gel, and electrophoresis was performed. It was then immersed in denature buffer (0.25 N NaOH, 1 M NaCl) for 30 minutes to denature dsDNA of HBV into ssDNA. The DNA in the gel was transferred to a Nylon membrane using a transfer buffer (0.4 M NaOH), the membrane was soaked with a 2×SSC buffer (sigma, cat #85639) for neutralization, followed by drying in air. The membrane was immersed in a church buffer (10% BSA, 0.5 M EDTA, 1 M NaPi, 20% SDS), and the radioisotopes were hybridized using a Mega prime kit (GE healthcare, RPN1607). After washing three times with washing buffer (2×SSC, 0.1% SDS), measurement was performed using radioisotope measurement equipment, and a relative replication rate (%) to the negative control group (Mock) was calculated and shown.
# [1] = target: T1, NTCP (Na+ taurocholate cotransporting peptide), HepG2-hNTCP-C4 cell line (Homo sapiens, UniProt Q14973); assay: Inhibition of binding between FITC-labelled PreS1 and NTCP expressing cell line, flow cytometry
# T1 construct: expressed in transfected cells; host or cells: HepG2-hNTCP-C4 (HepG2 cells expressing human NTCP)
# T1 sequence (Q14973 1-349): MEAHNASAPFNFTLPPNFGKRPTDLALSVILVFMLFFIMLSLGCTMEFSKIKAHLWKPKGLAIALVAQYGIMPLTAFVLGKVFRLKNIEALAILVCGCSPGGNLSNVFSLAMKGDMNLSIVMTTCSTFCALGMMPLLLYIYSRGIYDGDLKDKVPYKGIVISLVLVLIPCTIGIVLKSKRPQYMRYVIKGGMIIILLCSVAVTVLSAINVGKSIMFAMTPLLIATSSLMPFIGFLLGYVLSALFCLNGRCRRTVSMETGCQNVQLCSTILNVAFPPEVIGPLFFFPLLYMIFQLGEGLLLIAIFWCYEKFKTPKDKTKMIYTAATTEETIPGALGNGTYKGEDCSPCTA
# Experimental: HepG2-hNTCP-C4 cell line, a cell line expressing NTCP, was seeded in a 6 well plate at a density of 2×10^5/well and incubated at 4° C. for 30 minutes when the confluency reached 80% after overnight incubation for 2 days. Thereafter, 20 nM PreS1 (Myr-GTNL […]-Lys(FITC) (SEQ ID NO: 1)) and the compounds in Example 1, Examples 38 to 56 or the compound in Comparative Example 1 were treated by diluting in culture media at 4° C. at a concentration of 50 µM respectively, and the media was suctioned after 2 hours, followed by washing 3 times with 4° C. PBS. In order to take the cells off from the plate, 500 μl of 0.5 mM EDTA PBS solution was treated, and then incubation was performed at 37° C. for 15 minutes to check whether the cells fell off through an optical microscope. After taking off the cells by pipetting, the cells were collected in a 1.5 ml tube and centrifuged (4000 rpm, 4° C., 3 min). After suctioning the supernatant, the pellet was washed 3 times with 4° C. PBS, and then green fluorescence was measured via flow cytometry. In this case, taurocholic acid (TCA), a compound known as a substrate of NTCP to reduce the entry of HBV or HDV, was used as a positive control group.
# In the graph at the top of FIG. 1, black (1) and red (2) indicate a negative control group with no treatment and an HBV-induced group (HBV preS1) solely treated with PreS1, respectively. Blue (HBV preS1+HBV entry inhibitor) (3) is the fluorescence value for each of Examples or Comparative Examples, evaluated that the closer to the negative control group, the more inhibited the binding between PreS1 and the NTCP cell line.
# The experimental method was the same as in the Experimental Example 1-1, and 20 nM PreS1 and each compound were treated at 4 concentrations (0.2 μM, 2 μM, 10 μM, 50 μM).
# With an expectation that there is a structure-activity relationship among compounds composed of bile acid and amino acids, for each of bile acids in Comparative Example 1 (lithocholic acid, LCA), Comparative Example 2 (ursodeoxycholic acid, UDCA), Comparative Example 3 (cholic acid, CA), Comparative Example 4 (hyodeoxycholic acid, HDCA), Comparative Example 5 (deoxycholic acid, DCA), and Comparative Example 6 (chenodeoxycholic acid, CDCA), an evaluation experiment was conducted on an ability to inhibit the binding between PreS1 and NTCP expressing cell lines, and also for Examples 1 (LCA-Ile) and Example 44 (LCA-Val) as well as the compounds in Example 2 (UDCA-Ile), Example 3 (UDCA-Val), Example 6 (CA-Ile), Example 7 (CA-Val), Example 8 (HDCA-Ile), Example 9 (HDCA-Val), Example 10 (DCA-Ile), Example 11 (DCA-Val), Example 14 (CDCA-Ile), and Example 15 (CDCA-Val) in which bile acid parts (lithocholic acid) of Example 1 (LCA-Ile) and Example 44 (LCA-Val) were substituted with other types of bile acids in Comparative Examples 2 to 6, an evaluation experiment was conducted on an ability to inhibit the binding between PreS1 and NTCP expressing cell lines. The experimental method was the same as in the Experimental Example 1-1, and 18 compounds in the Comparative Examples 1 to 6, Examples 1 to 3, Examples 6 to 11, Examples 14 to 15, and Example 44 were treated at a concentration of 50 µM along with 20 nM PreS1.
# In FIG. 9, an evaluation experiment was conducted to check a degree of inhibiting the binding between PreS1 and NTCP expressing cell lines for compounds in Examples 4 to 5, Examples 12 to 13, Examples 16 to 17, and Comparative Examples 2 (ursodeoxycholic acid, UDCA), Comparative Examples 5 (deoxycholic acid, DCA), and Comparative Examples 6 (chenodeoxycholic acid, CDCA) according to the present disclosure. The experimental method was the same as the Experimental Example 1-1.
# In the Experimental Examples 1-4, it was determined whether there is additionally concentration dependence for Example 4 (UDCA-Trp), a compound with good inhibitory ability. […]
SMILES,amount of HBeAg DNA detected compared to the negative control group (Mock) (HBV virus),"effect of inhibiting the binding between PreS1 and NTCP expressing cell lines by treatment concentration ([1]; 0.2 μM, 2 μM, 10 μM, 50 μM, 20 nM PreS1)","relative fluorescence intensity compared to Comparative Example 1 (LCA) ([1]; compound 50 µM, 20 nM PreS1, 4° C., 2 hours, lower = more inhibited binding)"
"C[C@H](CCC(=O)N[C@@H](CCC(=O)O)C(=O)O)[C@H]1CC[C@H]2[C@@H]3CC[C@@H]4C[C@H](O)CC[C@]4(C)[C@H]3CC[C@]12C [Example 55, (S)-2-((R)-4-((3R,5R,8R,9S,10S,13R,14S,17R)-3-hydroxy-10,13-dimethyl-hexadecahydro-1H-cyclopenta[a]phenanthren-17-yl)pentanamido)pentanedioic acid]",relatively less amount,,
"CC(C)[C@H](NC(=O)CC[C@@H](C)[C@H]1CC[C@H]2[C@@H]3CC[C@@H]4C[C@H](O)CC[C@]4(C)[C@H]3CC[C@]12C)C(=O)N[C@@H](Cc1c[nH]c2ccccc12)C(=O)O [Example 25, (S)-2-((S)-2-((R)-4-((3R,5R,8R,9S,10S,13R,14S,17R)-3-hydroxy-10,13-dimethyl-hexadecahydro-1H-cyclopenta[a]phenanthren-17-yl)pentanamido)-3-methylbutanamido)-3-(1H-indol-3-yl)propanoic acid]",relatively less amount,,
"C[C@H](CCC(=O)N[C@@H](Cc1ccc(O)cc1)C(=O)O)[C@H]1CC[C@H]2[C@@H]3CC[C@@H]4C[C@H](O)CC[C@]4(C)[C@H]3CC[C@]12C [Example 52, (S)-2-((R)-4-((3R,5R,8R,9S,10S,13R,14S,17R)-3-hydroxy-10,13-dimethyl-hexadecahydro-1H-cyclopenta[a]phenanthren-17-yl)pentanamido)-3-(4-hydroxyphenyl)propanoic acid]",relatively less amount,concentration dependent,low and lower
